Source: patent US20220204437A1, “New Kaurane analogues, their preparation and therapeutically uses” (KEY PHARMA BIOMEDICAL INC., priority 2019, published 2022)

How the values were obtained:
[1] = tested on: cardiac ischemia animal model by coronary ligation; assay: Cardiac ischemia animal model by coronary ligation; assay type: in vivo; conditions: for area of infraction / cardiac contractility / number of micro-blood vessels: coronary ligation, in comparison of control; for function of failing heart due to acute coronary ligation / occurrence of arrhythmia induced by acute ischemia: in vivo
Description: This invention disclosed that compound 1 and 2 can increased the function of failing heart due to acute coronary ligation.

[2] = DOX alone or DOX co-treated with the compound
[3] = tested on: Doxorubicin-induced cardiotoxicity; assay: Protection against Doxorubicin-induced cardiotoxicity / cardiac dysfunctions in vivo; conditions: among the synthesized new kaurane analogues
[4] = tested on: cardiac toxicity animal induced by other drugs used for chemotherapy; assay: Cardiac toxicity animal induced by other chemotherapy drugs (anthracyclines: epirubicin, daunorubicin, aclarubicin); assay type: in vivo; conditions: cardiac toxicity induced by anthracyclines including epirubicin
[5] = tested on: cerebral ischemia animal model; assay: Cerebral ischemia animal model; assay type: in vivo; conditions: in comparison of control
[6] = tested on: drug induced diabetes animal model; assay: Drug induced diabetes animal model with cardiomyopathy; assay type: in vivo; conditions: cardiomyopathy developed after 4 weeks; treatment for 2 weeks
Description: In other embodiment, this invention disclosed that in a drug induced diabetes animal model, cardiomyopathy was developed after 4 weeks. However, the cardiac inflammatory changes were diminished after treatment of compound 1 and 2 for 2 weeks.

[7] = tested on: chronic cardiac hypertrophy and heart failure animal induced by TAC; assay: Chronic cardiac hypertrophy and heart failure animal induced by TAC (Thoracic aorta constriction); assay type: in vivo; conditions: for interstitial collagen deposition (histo-pathology) / number of myofibroblasts (histo-pathology) / size of cardiomyocytes (histo-pathology): treated 4 weeks, in comparing to control; for cardiac contractility: treated for consecutive 4 weeks after the surgery, in comparing of control animals
Protocol: Furthermore, in an embodiment of this invention, a chronic cardiac hypertrophy and heart failure animal was induced by TAC (Thoracic aorta constriction) . The animal was treated with compound 1 and 2 for consecutive 4 weeks after the surgery.

| SMILES | area of infraction [1] | cardiac contractility [1] | number of micro-blood vessels [1] | function of failing heart due to acute coronary ligation [1] | occurrence of arrhythmia induced by acute ischemia [1] | LC50 of DOX [2] [µM] | protective activity against Doxorubicin-induced cardiotoxicity [3] | effects in term of function and pathology [4] | area of infraction [5] | movement and behavers [5] | cardiac inflammatory changes [6] | interstitial collagen deposition (histo-pathology) [7] | number of myofibroblasts (histo-pathology) [7] | size of cardiomyocytes (histo-pathology) [7] | cardiac contractility [7] |
| --- | --- | --- | --- | --- | --- | --- | --- | --- | --- | --- | --- | --- | --- | --- | --- |
| C[C@]12CC[C@@H]3C(CC[C@H]4[C@@]3(C)CCC[C@@]4(C)C(=O)O)(C1)[C@H](C(=O)O)[C@H]2O [compound 1, (4R, 4aS, 7S, 8R, 9S, 11aS, 11lbS)-8-hydroxy-4,9, 11b-trimethyltetradecahydro-6a, 9-methanocyclohepta[a]naphthalene-4,7-dicarboxylic acid] | reduced | significantly increased | increased | increased | reduced | 66.62 | maximum protective activity | Signiant beneficial effects | significantly reduced | improved | diminished | reduced | reduced | significant reduction | significantly enhanced |
| C[C@]12CC[C@@H]3C(CC[C@H]4[C@@]3(C)CCC[C@@]4(C)C(=O)O)(C1)[C@H](C=O)[C@H]2O [compound 2, (4R, 4aS, 7S, 8R, 9S, 11aS, 11bS)-7-formyl-8-hydroxy-4,9, llb-trimethyltetradecahydro-6a, 9-methanocyclohepta[a]naphthalene-4-carboxylic acid] | reduced | significantly increased | increased | increased | reduced | 92.61 | maximum protective activity | Signiant beneficial effects | significantly reduced | improved | diminished | reduced | reduced | significant reduction | significantly enhanced |
| COc1cccc2c1C(=O)c1c(O)c3c(c(O)c1C2=O)C[C@@](O)(C(=O)CO)C[C@@H]3O[C@H]1C[C@H](N)[C@H](O)[C@H](C)O1 [DOX, Doxorubicin, reference compound] |  |  |  |  |  | 51.56 |  |  |  |  |  |  |  |  |  |
| C[C@]12CC[C@@H]3C(CC[C@H]4[C@@]3(C)CCC[C@@]4(C)C(=O)O)(C1)[C@H](CO)C2=O [compound 3, (4R, 4aS, 7R, 9S, 11aS, 11bS)-7-(hydroxymethyl)-4,9, 11b-trimethyl-8-oxotetradecahydro-6a, 9-methanocyclohepta[a]naphthalene-4-carboxylic acid] |  |  |  |  |  | 74.83 |  |  |  |  |  |  |  |  |  |
